Read-outs that look alike come from different tables or passages of the source.
Assays:
[1] = test system: DNA; conditions: photoactivated by UVA (Dunnick et al. 1987); cited from earlier work
[2] = test system: FA pathway; conditions: Semlow et al. 2016; Li et al. 2020; cited from earlier work
[3] = test system: primary fibroblast cells from non-FA subjects (C3, C4); test: Repair of lesions in non-FA primary fibroblasts; assay type: cell-based
Method: HeLa, Jurkat and FA or XP primary cells (10^6 per dish) were seeded into 10 cm culture dishes and incubated overnight in culture medium. The following day, samples were treated with 0.5 μM click-Melphalan (Example 1), 0.5 μM click-MonoMelphalan (Example 2) or DMSO vehicle for 1 h. After treatment, cells were PBS-washed and released into medium. At designated time points, samples were harvested and fixed in EtOH 70%. Fixed cells where incubated in a click reaction buffer (50 μM Alexa fluor 647 azide, 1 mM copper (II) sulfate, 100 mM sodium ascorbate, 100 mM Tris-HCl pH 8.0) for 30 min at room temperature and then washed extensively using 3×5% FBS in PBS rinses to remove unbound reporter. Samples were stained with 5 μg/mL propidium iodide in 3% FBS in PBS and then analyzed using an LSR Fortessa flow cytometer (BD Biosciences, San Jose, CA). Ten thousand events were collected for each sample and gated using forward-versus side-scatter to eliminate cell debris and doublets. The data were analyzed using FlowJo software version 7.6.5 (Tree Star, San Carlos, CA).
FA patient skin fibroblast cells were cryopreserved at Saint-Louis Hospital (Paris, France). Informed consents were obtained from the patients and/or their relatives and IRB approval from the INSERM was given under the number 12-078. […]

[4] = test system: HeLa cells; test: Clonogenic survival assay
[5] = test system: HeLa cells; test: Detection of G2 arrest by flow cytometry
[6] = test system: fibroblast cells from XP patients (XP1, XP2); test: Repair of lesions in XP patient fibroblasts
[7] = test system: HeLa cells; test: Reverse alkaline comet assay (ICL formation)
[8] = test system: cells from subject C3 (non-XP); test: Repair of lesions in control (non-XP) fibroblasts
[9] = test system: primary fibroblast cells from FA patients (FA1, FA2); test: Repair of lesions in FA patient primary fibroblasts
[10] = test system: HeLa FANCD2 KO cells; test: Dual parameter plot assay (click / propidium iodide)
[11] = test system: HeLa cells; test: as above
[12] = test system: HeLa cells; test: Repair of lesions in HeLa cells, click reaction and flow cytometry
[13] = test system: DNA; test: Detection of click agents in cells by microscopy (Alexa Fluor 647 azide)
[14] = test system: PHA-stimulated lymphocytes from FA patients; test: Repair of lesions in FA patient lymphocytes; conditions: both FA patients, 48 h post treatment

O=c1ccc2cc3ccoc3cc2o1 [Psoralen]
type of DNA lesions generated [1]: almost exclusively ICLs | repair of psoralen-induced ICLs by FA [2]: not preferentially repaired by FA

N[C@@H](Cc1ccc(N(CCCl)CCCl)cc1)C(=O)O [melphalan, (S)-2-amino-3-(4-(bis(2-chloroethyl)amino)phenyl)propanoic acid, reference compound]
cells still positive for melphalan [3]: less than 25% | number of colonies formed (clonogenic survival) [4]: similarly reduces the number of colonies formed with no significative differences | toxicity compared to mono-melphalan [4]: higher toxicity of melphalan compared to mono-melphalan | overall biological response, melphalan vs click-melphalan [5]: equivalent biological response | cells still positive for melphalan [6]: ~75% | IR-induced tail moment after pre-treatment [7]: large decrease in the IR-induced tail moment | visual comet score in the absence of IR [7]: neither Melphalan, click-Melphalan (Example 1), mono-melphalan (Comparative Example 1) nor click-mono-melphalan (Example 2) generated a visual comet score beyond the vehicle-treated control | cells still positive for melphalan [8]: 25% | cells still positive for melphalan [9]: ~100% | persistence of melphalan-induced lesions [9]: persisted in the FA patient cells up to 48 h | cell cycle block and repair until 48 h [10]: remained blocked in late S-G2 phase until 48 h with unrepaired DNA lesions | cell cycle phase of positive cells at 12 h [11]: most of the HeLa positive cells are blocked in late S-G2 | fluorescence at 24 h [11]: a decrease in fluorescence is observed at 24 h | repair at 48 h [11]: full repair at 48 h | effect of added non-clickable melphalan on repair of click-mono-melphalan monoadducts [12]: inhibited by the addition of non-clickable melphalan during the first 24 h of recovery | fluorescence in cells after click reaction [13]: do not present significant levels of fluorescence

N[C@@H](Cc1ccc(N(CCO)CCCl)cc1)C(=O)O [mono-melphalan, (S)-2-Amino-3-(4-((2-chloroethyl) (2-hydroxyethyl)amino)phenyl)propanoic acid]
number of colonies formed (clonogenic survival) ([4]; 1 h treatment, colonies after 15 days, parent vs click compound, FIG. 1A, 1B): similarly reduces the number of colonies formed with no significative differences | repair of lesions in PHA-stimulated lymphocytes [14]: able to repair mono-melphalan | cells still positive for mono-melphalan ([6]; XP1 and XP2, 48 h, FIG. 11B): ~100% | persistence of mono-melphalan-induced lesions ([6]; XP compared to non-XP cells, up to 48 h, FIG. 11A, 11B): persisted in the XP patient cells up to 48 hours | visual comet score in the absence of IR ([7]; no IR, FIG. 1C, 1D, 2C): neither Melphalan, click-Melphalan (Example 1), mono-melphalan (Comparative Example 1) nor click-mono-melphalan (Example 2) generated a visual comet score beyond the vehicle-treated control | cells still positive for mono-melphalan ([8]; subject C3, 48 h, FIG. 11B): ~0% | reduction of signal during repair of lesions, FA vs non-FA cells ([9]; FA1, FA2 vs C3, C4 fibroblasts, FIG. 9B): No significant differences in the reduction of signal | dependence of the repair delay on DNA content ([10]; FIG. 7A left panel): observed in all cells independently of their DNA content | repair of DNA lesions at 24 h ([10]; HeLa FANCD2 KO compared to HeLa, 24 h, FIG. 7A left panel): slightly delayed in HeLa FANCD2 KO at 24 h compared to HeLa cells
